Measurements: patent EP4656630A1, “NOVEL COMPOUND AS LYSYL-TRNA SYNTHETASE 1 INHIBITOR, AND USE THEREOF” (Zymedi Co., Ltd., priority 2023, dated 2024)

Tests used:
[1] = Microsomal metabolic stability, human; assay type: in vitro ADME
Procedure: (§1) Metabolic stability (MS) evaluation was conducted for the selected compounds by measuring in vitro stability in two species, rat and human, according to the microsomal stability measurement method. As a result, it was identified that MS varied depending on the transformation of parts A, B, and C.

[2] = S9 metabolic stability, rat; assay type: in vitro ADME
Procedure: (§2) Among these, secondary MS measurements were conducted for Compound 25 (C0047), Compound 43 (C0216), and C0001 using the S9 method. This test measured the remaining % at 30, 45, and 60 minutes for four species: mouse, rat, dog, and human.

[3] = Organ distribution; assay type: in vivo; parameters: Organ distribution Plasma (ng/ml): concentration or dose not given beside the values
[4] = Rat pharmacokinetics (po and iv) and bioavailability; assay type: in vivo; conditions: for Cmax / Tmax / half-life / AUC: in vivo
Procedure: For this purpose, formulations suitable for peroral administration (po) and intravenous injection (iv) for each compound were first selected to ensure stable PK progression.
The formulation was selected under the condition of maintaining a clear solution for more than 1 hour at 10 and 30 mpk doses based on po, and the iv formulation was modified when iv use was not possible based on po (Table 8).
To confirm the oral administration potential of the selected compounds, 10 mpk rat po PK was conducted. The PK profile and key indicators after administering 10 mpk to five compounds, C0001, 25, 41, 42, and 43, are shown in Figure 3 and Table 9.
Based on the previous 10 mpk po rat PK results, 30 mpk po rat PK was conducted for four compounds, C0001, 25, 41, and 43, to confirm changes in the blood PK profile of the substances with increasing doses.
For these compounds, 2 mpk iv rat PK was conducted to calculate bioavailability (BA) (Table 11).

[5] = tested on: Raw 264.7 cells; test: LN (Laminin 421)-induced immune cell migration, Transwell; assay type: cell-based; conditions: Mus musculus, RAW264.7
In short: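 Raw 264.7 cells (1 x 10^5/well) seeded in upper chamber of gelatin-coated 5 µm Transwell with compound at 3 µM. Serum-free DMEM with Laminin 421 (1 µg/ml) in lower chamber. After 24 h, migrated cells fixed, hematoxylin-stained and counted by microscopy; expressed as % inhibition versus control.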

[6] = S9 metabolic stability, dog; assay type: in vitro ADME
Procedure: as §2

[7] = Microsomal metabolic stability, rat; assay type: in vitro ADME
Procedure: as §1

[8] = S9 metabolic stability, human; assay type: in vitro ADME
Procedure: as §2

[9] = tested on: Raw264.7 cells; test: KARS1-induced trans-migration assay; assay type: cell-based, mouse; conditions: Mus musculus, RAW264.7
In short: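 Mouse Raw264.7 macrophage trans-migration induced by externally added KARS1 protein in place of laminin. Candidates with high inhibition at 1 µM were then tested at 0.1~4 µM.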

[10] = S9 metabolic stability, mouse; assay type: in vitro ADME
Procedure: as §2

[11] = target: T1, KARS1 and 37LR (Homo sapiens, UniProt Q15046); test: Cell-free ELISA of KARS1 and 37LR (laminin receptor) binding; conditions: 10 µM compound, 1 hour, plate coated with KARS1 (1-207aa), LRF
T1 construct: KARS1 (1-207aa)
T1 sequence (Q15046 1-207): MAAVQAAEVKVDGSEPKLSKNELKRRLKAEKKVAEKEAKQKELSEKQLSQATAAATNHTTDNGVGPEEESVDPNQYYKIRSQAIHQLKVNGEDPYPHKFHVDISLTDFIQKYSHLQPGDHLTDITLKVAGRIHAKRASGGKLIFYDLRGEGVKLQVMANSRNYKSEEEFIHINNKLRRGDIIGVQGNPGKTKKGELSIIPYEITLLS
Procedure: Next, based on the mechanism of action, a cell-free ELISA analysis was conducted to select compounds with high inhibitory activity on the binding of KARS1 and LR (laminin receptor).

Metabolic stability (% remaining at 30 min) Human [1]: 66%
Metabolic stability (% remaining at each time) Rat (min) 30 ([2]; 30 min): 86.0%
Metabolic stability (% remaining at each time) Rat (min) 45 ([2]; 45 min): 84.1%
Metabolic stability (% remaining at each time) Rat (min) 60 ([2]; 60 min): 88.5%
Organ distribution (ratio per plasma) Brain ([3]; 0.5 h): 0.06
Organ distribution (ratio per plasma) Brain ([3]; 6.0 h): 0.54
Organ distribution (ratio per plasma) Heart ([3]; 0.5 h): 0.29
Organ distribution (ratio per plasma) Heart ([3]; 6.0 h): 0.52
Organ distribution (ratio per plasma) Kidney ([3]; 0.5 h): 0.38
Organ distribution (ratio per plasma) Kidney ([3]; 6.0 h): 0.79
Organ distribution (ratio per plasma) Liver ([3]; 0.5 h): 0.85
Organ distribution (ratio per plasma) Liver ([3]; 6.0 h): 3.15
Organ distribution (ratio per plasma) Lung ([3]; 0.5 h): 0.41
Organ distribution (ratio per plasma) Lung ([3]; 6.0 h): 1.05
Organ distribution Plasma (ng/ml) ([3]; 0.5 h): 29,901 ng/ml
Organ distribution Plasma (ng/ml) ([3]; 6.0 h): 1,499 ng/ml
Cmax ([4]; 10 mg/kg, po, 10 mpk): 1750 ng/mL
Tmax ([4]; 10 mg/kg, po, 10 mpk): 1 h
half-life ([4]; 10 mg/kg, po, 10 mpk): 1.34 h
Cmax ([4]; 30 mg/kg, po, 30 mpk): 14400 ng/mL
Tmax ([4]; 30 mg/kg, po, 30 mpk): 2 h
half-life ([4]; 30 mg/kg, po, 30 mpk): 0.76 h
AUC ([4]; iv, 2 mg/kg, 2 mpk): 2410 ng·h/mL
AUC ([4]; po, 10 mg/kg, 10 mpk): > 5000 ng·h/mL
AUC ([4]; po, 10 mg/kg, 10 mpk (Table 11)): 5410 ng·h/mL
AUC ([4]; po, 30 mg/kg, 30 mpk): 53000 ng·h/mL
AUC ([4]; po, 30 mg/kg, 30 mpk (Table 11)): 53000 ng·h/mL
BA (%) ([4]; po, 10 mpk against iv 2 mpk): 44.9%
AUC (ng*h/ml) ([4]; po, 10 mpk, listed as 25 (C0047), 10 mg/kg): 5,109 ng*h/ml
BA (%) ([4]; po, 30 mpk against iv 2 mpk): 146.6%
AUC value increase at 30 mpk ([4]; po, 30 mpk compared with 10 mpk): 10.4 times
EC50 ([5]; LN-induced cell migration, read-out: EC50 for cell migration inhibition induced by LN): 5.96 µM
Metabolic stability (% remaining at each time) Dog (min) 30 ([6]; 30 min): 100.6%
Metabolic stability (% remaining at each time) Dog (min) 45 ([6]; 45 min): 93.5%
Metabolic stability (% remaining at each time) Dog (min) 60 ([6]; 60 min): 97.0%
Metabolic stability (% remaining at 30 min) Rat [7]: 77%
Metabolic stability (% remaining at each time) Human (min) 30 ([8]; 30 min): 70.1%
Metabolic stability (% remaining at each time) Human (min) 45 ([8]; 45 min): 75.8%
Metabolic stability (% remaining at each time) Human (min) 60 ([8]; 60 min): 66.8%
EC50 ([9]; KARS1-induced cell migration, 0.1~4 µM): 0.57 µM
Metabolic stability (% remaining at each time) Mouse (min) 30 ([10]; 30 min): 70.5%
Metabolic stability (% remaining at each time) Mouse (min) 45 ([10]; 45 min): 71.7%
Metabolic stability (% remaining at each time) Mouse (min) 60 ([10]; 60 min): 60.9%
inhibition at 10 µM [11]: 69.2%
SMILES: COc1ccc(CCN(Cc2ccc(N3CC[C@H](C(=O)O)C3)cc2)c2nc3cccc(F)c3s2)cc1 [Compound 25, (S)-1-(4-(((7-fluorobenzo[d]thiazol-2-yl)(4-methoxyphenethyl)amino)-methyl)phenyl)pyrrolidine-3-carboxylic acid]
inhibition at 3 µM ([5]; 3 µM compound, LN (Laminin 421 1 µg/ml), 24 hours, % inhibition compared to control group, read-out: Migration inhibitor % (3uM)): 83%
inhibition at 1 µM ([9]; 1 µM compound, read-out: KARS1-induced Raw264.7 cell migration (% inhibition, 1uM)): 96.2%
